Experiments:
[1] = test system: SK1 mRNA; assay: SK1 mRNA expression by quantitative PCR in A498 cells; type: cell-based; conditions: inhibitor at its IC50, 48 hr
Method: (§1) To assess proliferation, cells were treated with the SK inhibitors for the indicated times, and cell numbers were quantified using the sulforhodamine assay. Expression levels of SK1 and SK2 were measured by quantitative PCR using GAPDH for normalization, as previously described. […] The cell pellets were subjected to sphingolipid profiling by HPLC-MS by the Lipidomics Core Facility at MUSC as described elsewhere. […] For migration assays, 50,000 cells were placed in each cell culture insert (24-well format, 8 µm pore size, BD Biosciences) for 1 hr at room temperature. For invasion assays, matrigel pre-coated inserts were used as previously described. In both cases, inserts were placed into 24-well plates with 0.3 ml of 10%-serum-containing medium having the same concentration of the inhibitor as the insert. Cells were cultured for 4 hr for migration or 24 hr for invasion assays, and the number of cells that migrated to the underside of the inserts was determined by crystal violet staining as previously described.
(§2) Figure 5 Biochemical and phenotypic effects of SK inhibitors. A ) Cytotoxicity - After treatment with varying concentrations of the SK inhibitors for the indicated time periods, cell numbers were quantified. […] B ) SK expression - After SK inhibitor treatment, mRNAs for SK1 (open bars) and SK2 (filled bars) compared to the vehicle controls (DMSO-treated cells) were calculated. C ) Sphingolipid profiling – After SK inhibitor treatment, cells were harvested and sphingolipids were analyzed by mass spectrometric. The bars represent the ratio of the amount of the indicated lipids in drug treated cells compared with control cells. Abbreviations are: C26-ceramide (C26-Cer), C24-ceramide (C24-Cer), C20-ceramide (C20-Cer), C18-ceramide (C18-Cer), C16-ceramide (C16-Cer), sphingosine (Sph) and dihydrosphingosine (dhSph). D ) Cell cycle distribution – After SK inhibitor treatment, cells were harvested and analyzed by flow cytometry. The bars indicate the percentage of cells in each of the indicated cell cycle phases. E ) Cell migration and invasion – After SK inhibitor treatment, cells were harvested and migration, through unmodified filters (open bars) and invasion through Matrigel-coated filters (filled bars), were analyzed. The bars indicate the percentage of cells that had migrated compared to control cells. Data are the mean ± SEM of three independent experiments. *p<0.05, **p<0.01, ***p<0.001 versus control.

[2] = biological target: T1, recombinant human SK2 (Homo sapiens, UniProt Q9NRA0); assay: SK activity assay, recombinant human SK2 (ADP-Quest; HPLC assay for SKI-II); type: biochemical; conditions: for Ki: recombinant human SK2, mean ± SEM of three independent experiments; for Ki / IC50: ADP-Quest (SKI-II: HPLC assay); for IC50: sphingosine 5 µM, read-out: IC50 for inhibition of SK2; for mode of inhibition of SK2: substrate competition, Lineweaver-Burk plots
T1 construct: purchased BPS Biosciences
T1 sequence (Q9NRA0 1-654): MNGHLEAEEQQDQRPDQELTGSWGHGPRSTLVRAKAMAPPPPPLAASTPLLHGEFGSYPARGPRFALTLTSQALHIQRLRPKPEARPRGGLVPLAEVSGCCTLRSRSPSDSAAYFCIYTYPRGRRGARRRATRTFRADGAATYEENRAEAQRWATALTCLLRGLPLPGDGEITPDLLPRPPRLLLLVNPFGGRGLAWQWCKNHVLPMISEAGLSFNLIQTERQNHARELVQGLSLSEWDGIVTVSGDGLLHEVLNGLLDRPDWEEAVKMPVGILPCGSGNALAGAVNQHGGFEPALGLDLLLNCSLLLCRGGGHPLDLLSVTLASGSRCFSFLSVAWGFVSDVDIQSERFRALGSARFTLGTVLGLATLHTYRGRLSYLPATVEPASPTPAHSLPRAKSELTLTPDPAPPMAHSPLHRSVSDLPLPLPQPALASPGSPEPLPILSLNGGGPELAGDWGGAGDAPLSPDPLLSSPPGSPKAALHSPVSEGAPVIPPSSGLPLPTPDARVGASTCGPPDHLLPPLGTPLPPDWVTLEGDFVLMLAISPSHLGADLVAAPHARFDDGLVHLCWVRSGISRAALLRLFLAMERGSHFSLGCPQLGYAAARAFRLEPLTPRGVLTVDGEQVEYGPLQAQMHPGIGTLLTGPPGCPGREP
Method: (§3) The enzymatic activities of recombinant human SK1 or SK2 (purity ≥74% by coomassie staining for each isozyme, BPS Biosciences) were measured using the ADP-Quest kinase assay kit (DiscoveRX Corporation, Fremont, CA) as previously described [34]. […] The reactions were maintained in initial velocity conditions (<5% of the substrate consumed), and data was fitted to the Michaelis–Menten equation by nonlinear regression (Prism 5 for Windows, GraphPad Software). […] For substrate competition analyses, a series of sphingosine concentrations were used and Lineweaver–Burk plots were constructed to define the mode of inhibition.

[3] = test system: A498 kidney adenocarcinoma cells; assay: Sphingolipid profiling by HPLC-MS in A498 cells; type: cell-based; conditions: inhibitor at its IC50, 48 hr
Method: as §1, §2

[4] = test system: A498 kidney adenocarcinoma cells; assay: Serum-induced migration and invasion (Matrigel) assays; type: cell-based; conditions: inhibitor at its IC50, 48 hr pretreatment, compared with SK1-selective CB5468139
Method: (§4) To assess proliferation, cells were treated with the SK inhibitors for the indicated times, and cell numbers were quantified using the sulforhodamine assay [38]. […] For migration assays, 50,000 cells were placed in each cell culture insert (24-well format, 8 µm pore size, BD Biosciences) for 1 hr at room temperature. For invasion assays, matrigel pre-coated inserts were used as previously described [17]. In both cases, inserts were placed into 24-well plates with 0.3 ml of 10%-serum-containing medium having the same concentration of the inhibitor as the insert. Cells were cultured for 4 hr for migration or 24 hr for invasion assays, and the number of cells that migrated to the underside of the inserts was determined by crystal violet staining as previously described [17].
(§5) A ) Cytotoxicity - After treatment with varying concentrations of the SK inhibitors for the indicated time periods, cell numbers were quantified. […] E ) Cell migration and invasion – After SK inhibitor treatment, cells were harvested and migration, through unmodified filters (open bars) and invasion through Matrigel-coated filters (filled bars), were analyzed. […] Data are the mean ± SEM of three independent experiments. *p<0.05, **p<0.01, ***p<0.001 versus control.

[5] = test system: A498 kidney adenocarcinoma cells; assay: Cell cycle distribution by flow cytometry; type: cell-based; conditions: inhibitor at its IC50, 48 hr
Method: as §2

[6] = biological target: T2, recombinant human SK1 (Homo sapiens, UniProt Q9NYA1); assay: SK activity assay, recombinant human SK1 (ADP-Quest; HPLC assay for SKI-II); type: biochemical; conditions: for IC50: sphingosine 10 µM, read-out: IC50 for inhibition of SK1; for IC50 / Ki: ADP-Quest (SKI-II: HPLC assay); for Ki: recombinant human SK1, mean ± SEM of three independent experiments; for mode of inhibition of SK1: substrate competition, Lineweaver-Burk plots
T2 construct: purchased BPS Biosciences
T2 sequence (Q9NYA1 whole entry): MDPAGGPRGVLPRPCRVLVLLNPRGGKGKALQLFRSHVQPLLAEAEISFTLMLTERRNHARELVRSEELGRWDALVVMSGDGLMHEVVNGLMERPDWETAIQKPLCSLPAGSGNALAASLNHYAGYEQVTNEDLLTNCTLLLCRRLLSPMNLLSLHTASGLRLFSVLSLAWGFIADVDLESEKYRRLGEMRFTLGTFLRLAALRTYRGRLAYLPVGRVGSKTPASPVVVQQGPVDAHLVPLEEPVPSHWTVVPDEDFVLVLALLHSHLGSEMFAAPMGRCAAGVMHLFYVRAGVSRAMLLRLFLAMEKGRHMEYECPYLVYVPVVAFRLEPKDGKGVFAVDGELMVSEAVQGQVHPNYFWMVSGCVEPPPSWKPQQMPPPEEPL
Method: as §3

[7] = test system: STAT3, AKT, ERK, p21, p53, FAK, Beclin1, LC3 in A498 cells; assay: Western blot of signaling proteins in A498 cells; type: cell-based; conditions: inhibitor at its IC50, 48 hours
Method: Following treatment with the SK inhibitors, cells were washed, harvested and lysed, and supernatants were prepared and protein concentrations were determined as previously described. Immunoblotting was carried out with the following primary antibodies (Cell Signaling): AKT, pAKT, ERK1/2, pERK1/2, STAT3, pSTAT3, p21, p53, FAK, pFAK(Y397), Beclin1, LC3, β-actin; and corresponding HRP-conjugated anti-rabbit or anti-mouse secondary antibodies, and immunocomplexes were visualized by the chemiluminescence. Protein expression was quantified by densitometric scanning of the BIOMAX XAR films after normalization to β-actin using the program NIH ImageJ.
Figure 6 Effects of SK inhibitors on signaling proteins. […] Figures are representative blots of at least three independent experiments. B ) Immunoblotting was conducted with the indicated antibodies, and densitometric quantification was done using Image J. Relative expression is represented as the ratio to control after normalization to β-actin.

[8] = test system: SK2 mRNA; assay: SK2 mRNA expression by quantitative PCR in A498 cells; type: cell-based; conditions: inhibitor at its IC50, 48 hr
Method: as §1, §2

[9] = test system: A498 kidney adenocarcinoma cells; assay: Proliferation / cytotoxicity, sulforhodamine assay; type: cell-based; conditions: Homo sapiens, A498, 48 h, read-out: IC50, concentration that reduces cell number by 50%
Method: as §4, §5

[10] = test system: panel of 65 protein kinases; assay: Kinase profiling, KinaseSeeker assay; conditions: 2 µM compound; 65 protein kinases tested
Method: The inhibitory effects of CB5468139 (2 µM) on the indicated protein kinases were tested using KinaseSeeker assay technology (Luceome Biotech. LLC).

[11] = 100 µM ATP, sphingosine 1.25 to 20 µM, initial velocity conditions

Row | Molecule | SK1 mRNA level compared to vehicle control [1] | Ki [2] | IC50 [2] | mode of inhibition of SK2 [2] | decrease of intracellular S1P compared to control [3] | effect on cell cycle distribution [5] | IC50 [6] | pFAK(Y397) / FAK [7] | protein levels of p53 and p21 [7] | SK2 mRNA level compared to vehicle control [8] | IC50 [9] | mode of inhibition of SK1 [6] | other results
1 | O=C(NCc1ccncc1)C12CC3CC(C1)CC(c1ccc(Cl)cc1)(C3)C2 [ABC294640] | approximately 5 fold | 9.3 µM | ~40 µM | sphingosine-competitive inhibitor | over 90% | distinct G1 arrest with significant decreases in both S and G2/M phases | > 100 µM | strongly down-regulated | decreased the protein levels of p53 and p21 | strongly increased | 40 µM |  | levels of sphingosine [3]: dramatically decreased; total ceramides relative to control cells [3]: 2 times the level of control cells; serum-induced migration and invasion [4]: more strongly attenuated; ERK2 expression [7]: decreases of ERK2; STAT3 expression and activation (pSTAT3) [7]: largest decrease; expression of autophagy markers beclin1 and LC3 [7]: most pronounced increases; pAKT level [7]: decreased dramatically
2 | O=C(NCCc1ccc(O)c(O)c1)C12CC3CC(C1)CC(c1ccc(Cl)cc1)(C3)C2 [ABC294735] | Neither ABC294735 nor CB5468139 substantially altered the expression | 4.2 ± 0.6 µM | ~10 µM | sphingosine-competitive inhibitor |  | slightly increase the S phase percentage | ~10 µM |  |  | Neither ABC294735 nor CB5468139 substantially altered the expression | 35 µM | sphingosine-competitive inhibitor | Ki [6]: 3.1 ± 0.8 µM
3 | diacylglycerol [DAG] |  |  | > 100 µM |  |  |  | > 100 µM |  |  |  |  |  | 
4 | CCCCCCCCCCCCC/C=C/[C@@H](O)[C@@H](N)CO [sphingosine] |  |  |  |  |  |  |  |  |  |  |  |  | Km [2, 11]: 5 ± 0.36 µM; Km [6, 11]: 10 ± 0.45 µM
5 | CC(=O)N(C1=C(Cl)C(=O)c2ccccc2C1=O)C1CCCCC1 [CB5468139] | Neither ABC294735 nor CB5468139 substantially altered the expression |  | > 100 µM |  | less than 20% | slightly increase the S phase percentage | ~2 µM | strongly down-regulated | reduced the expression of p53, but not p21 | Neither ABC294735 nor CB5468139 substantially altered the expression | 10 µM | ATP mimetic | increase of total ceramide levels [3]: 30–60%; protein kinases with ≥50% inhibition [10]: 12 of 65; Ki [6]: 0.28 ± 0.15 µM
6 | Oc1ccc(Nc2nc(-c3ccc(Cl)cc3)cs2)cc1 [SKI-II, 2-(p-hydroxyanilino)-4-(p-chlorophenyl) thiazole, reference compound] | ~4 fold | 7.9 ± 0.6 µM | 20 µM |  | over 90% | arrested cells in S phase with a concomitant decrease in the G2/M phase |  | strongly down-regulated | decreased the protein levels of p53 and p21 | ~4 fold | 20 µM |  | increase of total ceramide levels [3]: 30–60%; levels of sphingosine [3]: dramatically decreased; serum-induced migration and invasion [4]: more strongly attenuated; ERK2 expression [7]: decreases of ERK2
7 | CCCCCCCCCCCCC/C=C/[C@@H](O)[C@H](CO)N(C)C [DMS, N,N-dimethyl-D-erythro-sphingosine, reference compound] | tripled | 14 µM | ~20 µM | competitive inhibition with respect to sphingosine |  | did not impact the cell cycle |  | not altered | essentially no affect | only slightly increased | 5 µM | competitive inhibition with respect to sphingosine | effect on levels of ceramides [3]: little impact on the levels of most ceramides; cells driven into apoptosis [5]: approximately 20%

Source: article PMC3438171, “Characterization of Isoenzyme-Selective Inhibitors of Human Sphingosine Kinases” (PLoS ONE, 2012)
